According to patent US9617212B2, “Isoindolin-1-ones as macrophage migration inhibitory factor (MIF) inhibitors” (Controlled Chemicals, Inc., priority 2013, dated 2017):
pIC50: −log10 of the molar value.

The molecules below were run against T1, Human MIF (MIF tautomerase) (Homo sapiens, UniProt P14174) (assay: MIF Tautomerase Inhibitory Assay with L-Dopachrome Methyl Ester). Conditions: relative potency class, MIF tautomerase inhibition; L-dopachrome methyl ester substrate, pH 7.34, no pre-incubation; read-out: IC50.
T1 construct: purchased ProSpec
T1 sequence (P14174 2-115 limits assumed): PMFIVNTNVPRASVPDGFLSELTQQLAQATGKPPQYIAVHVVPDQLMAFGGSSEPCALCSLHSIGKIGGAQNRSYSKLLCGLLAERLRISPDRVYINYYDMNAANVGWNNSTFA
Assay type: biochemical
Experimental: MIF Tautomerase Inhibitory Assay with L-Dopachrome Methyl Ester
Assay Method (pH 7.34, 0.017-0.033% DMSO, 0.034% EtOH): A fresh stock solution of L-dopachrome methyl ester in MeOH was prepared at 55-65 mM through oxidation of L-3,4-dihydroxyphenylalanine methyl ester hydrochloride with sodium periodate according to the procedure described in WO9729635A1. MeOH was removed from 0.5 mL of the L-dopachrome methyl ester/MeOH solution (55-65 mM) under a stream of argon and the residue taken up in appropriate amount of water to prepare a substrate solution (7-10 mM). Active Human MIF (from ProSpec) ([…]) was dissolved in 675 μL 0.1% bovine serum albumin (BSA) in water, and the resultant MIF solution (1 volume) mixed with 55 volumes of Na2HPO4 buffer (50 mM, pH 7.34) to form a 265 ng/mL MIF working solution. MIF working solution (280 μL) or a no-MIF working solution (prepared by mixing 0.1% BSA (1 volume) with the aforementioned Na2HPO4 buffer (55 volumes)) was transferred to wells in a column of 8 wells on a 96-well plate in a Plate Reader (SPECTRAmax Plus 384, Molecular Devices), and 5 μL of H2O/DMSO (99/1) containing no inhibitor or an inhibitor (whose concentration was verified by HPLC). Without pre-mixing or pre-incubation, 10 μL freshly prepared L-dopachrome methyl ester/H2O solution (7-10 mM) was added to each well with a multi-pipet. The assay samples were mixed immediately by sucking up and expelling the contents of the wells three times with a multi-pipet. The absorbance (A1) at 475 nm was then recorded for each sample every 2 s for 3 min. After 5-6 min, the samples were monitored again for 3 min with a reading every two seconds at 475 nm (A2). It can be shown that when [substrate]<<Km, plots of Ln(A1−A2) versus time are linear with slopes m (Eq 1). IC50 values were estimated from Eq 2-5, the inhibitor concentration [I] in the assay mixture and values of m in the presence (mi), absence (mo) of the inhibitor, the value of m observed for the non-MIF blank (mn), the MIF concentration (e), and the specificity constant for the MIF catalyzed reaction (kcat/Km). Ln(A1−A2)=−mt (Eq 1) F=(mi−mn)/(mo−mn) (Eq 2) Wherein mo−mn=ekcat/Km (Eq 3) and mi−mn=(ekcat/Km)[…] (Eq 4) IC50=[I]F/(1−F) (Eq 5)
The compounds listed in Table 1, provided herein, were prepared via procedures identical or similar to those described in the Examples 1-85. The listed compounds were >95% pure by HPLC. Each listed compound yielded a mass spectrum consistent with its structure. Concentrations of MIF tautomerase inhibitors used in the assay were verified by HPLC and the extinction coefficients of the inhibitors. The designated relative potency of MIF tautomerase inhibitors is based on the IC50 as determined by the method described in Biochemical Assay as follows: A, IC50<1 μM; B, 1 μM≦IC50<5 μM; C, 5 μM≦IC50<10 μM; D, 10 μM≦IC50<50 μM; E, 50 μM≦IC50<200 μM.

Row | SMILES | pIC50
1 | CC1CCCCC1N1Cc2ccc(O)cc2C1=O (stereo not shown) | 4.30 to 5.00
2 | O=C(OC1CCCCC1)c1ccc(CN2Cc3ccc(O)cc3C2=O)cc1 | 4.30 to 5.00
3 | CCC(C)OC(=O)[C@H]1CC[C@H](CN2Cc3ccc(O)cc3C2=O)CC1 (stereo partly shown) | 5.30 to 6.00
4 | CC(C)CNC(C)[C@H]1CC[C@H](CN2Cc3ccc(O)cc3C2=O)CC1 (stereo partly shown) | 5.30 to 6.00
5 | O=C1c2cc(O)ccc2CN1CCc1ccc(F)cc1 | 4.30 to 5.00
6 | COc1cccc(OC(CCC2CCCCC2)[C@H]2CC[C@H](CN3Cc4ccc(O)cc4C3=O)CC2)c1 (stereo partly shown) | 5.30 to 6.00
7 | CNC(=O)[C@H]1CC[C@H](CN2Cc3ccc(O)cc3C2=O)CC1 | 5.30 to 6.00
8 | O=C1c2cc(O)ccc2CN1CC1CCCCC1 | 5.30 to 6.00
9 | CC(C)NC(C)[C@H]1CC[C@H](CN2Cc3ccc(O)cc3C2=O)CC1 (stereo partly shown) | 5.30 to 6.00
10 | CC1CCC(N2Cc3ccc(O)cc3C2=O)CC1 (stereo not shown) | 5.30 to 6.00
11 | O=C1c2cc(O)ccc2CN1C[C@H]1CC[C@H](COC2CCCCC2)CC1 | 5.30 to 6.00
12 | CC(CC1CCCCC1)N1Cc2ccc(O)cc2C1=O (stereo not shown) | 4.30 to 5.00
13 | O=C1c2cc(O)ccc2CN1C[C@H]1CC[C@H](COc2cc(O)cc(F)c2)CC1 | 5.30 to 6.00
14 | O=C1c2cc(O)ccc2CN1CCC1CCCCC1 | 5.00 to 5.30
15 | CCOC(CCC1CCCCC1)[C@H]1CC[C@H](CN2Cc3ccc(O)cc3C2=O)CC1 (stereo partly shown) | > 6.00
16 | CC(C)(C)COC(=O)[C@H]1CC[C@H](CN2Cc3ccc(O)cc3C2=O)CC1 | > 6.00

Row | SMILES | pIC50
17 | CC(C)(O)[C@H]1CC[C@H](CN2Cc3ccc(O)c(F)c3C2=O)CC1 | > 6.00
18 | CCC(O)[C@H]1CC[C@H](CN2Cc3ccc(O)c(F)c3C2=O)CC1 (stereo partly shown) | > 6.00
19 | O=C1c2cc(O)ccc2CN1[C@H](CO)C1CCCCC1 | 4.30 to 5.00
20 | CC(O)[C@H]1CC[C@H](CN2Cc3ccc(O)cc3C2=O)CC1 (stereo partly shown) | > 6.00
21 | O=C1c2cc(O)ccc2CN1Cc1ccccc1 | 4.30 to 5.00
22 | CC(NCC(=O)O)[C@H]1CC[C@H](CN2Cc3ccc(O)c(F)c3C2=O)CC1 (stereo partly shown) | > 6.00
23 | CC(C)C[C@@H](NC(C)C1CCC(CN2Cc3ccc(O)c(F)c3C2=O)CC1)C(=O)O (stereo partly shown) [drawing 104] | > 6.00
24 | CC(=O)N(C)CCOc1cccc(OC[C@H]2CC[C@H](CN3Cc4ccc(O)c(F)c4C3=O)CC2)c1 | > 6.00
25 | O=C1c2cc(O)ccc2CN1C[C@H]1CC[C@H](C(O)CCC2CCCCC2)CC1 (stereo partly shown) | > 6.00
26 | COC(=O)CCN1Cc2ccc(O)cc2C1=O | 5.00 to 5.30
27 | CC(N)[C@H]1CC[C@H](CN2Cc3ccc(O)cc3C2=O)CC1 (stereo partly shown) | 5.30 to 6.00
28 | CCC(Oc1cccc(OC)c1)[C@H]1CC[C@H](CN2Cc3ccc(O)c(F)c3C2=O)CC1 (stereo partly shown) | > 6.00
29 | CC(N[C@H](C)C(=O)O)C1CCC(CN2Cc3ccc(O)c(F)c3C2=O)CC1 (stereo partly shown) | > 6.00
30 | CNCCOc1cccc(OC[C@H]2CC[C@H](CN3Cc4ccc(O)c(F)c4C3=O)CC2)c1 | > 6.00
31 | COC(=O)[C@@H](C)NC(C)C1CCC(CN2Cc3ccc(O)c(F)c3C2=O)CC1 (stereo partly shown) [drawing 113] | > 6.00
32 | COC(=O)CCCCN1Cc2ccc(O)cc2C1=O | 5.30 to 6.00

Results, then the molecule that gave them:

Row | pIC50 | SMILES
33 | > 6.00 | CC(C)NC(C)[C@H]1CC[C@H](CN2Cc3cc(F)c(O)c(F)c3C2=O)CC1 (stereo partly shown)
34 | > 6.00 | COc1cc(F)cc(OC[C@H]2CC[C@H](CN3Cc4ccc(O)cc4C3=O)CC2)c1
35 | > 6.00 | CC(N[C@H](C)C(=O)O)[C@H]1CC[C@H](CN2Cc3ccc(O)c(F)c3C2=O)CC1 (single isomer, unassigned)
36 | > 6.00 | CC(O)[C@H]1CC[C@H](CN2Cc3ccc(O)c(F)c3C2=O)CC1 (stereo partly shown)
37 | > 6.00 | O=C1c2cc(O)ccc2CN1C[C@H]1CC[C@H](COc2cccc(O)c2)CC1
38 | > 6.00 | COc1cc(OC(C)[C@H]2CC[C@H](CN3Cc4ccc(O)c(F)c4C3=O)CC2)ccc1F (stereo partly shown)
39 | > 6.00 | CC[C@@H](C(=O)OC(C)[C@H]1CC[C@H](CN2Cc3ccc(O)c(F)c3C2=O)CC1)c1ccccc1 (stereo partly shown)
40 | > 6.00 | CC(N[C@H](CO)C(=O)O)[C@H]1CC[C@H](CN2Cc3ccc(O)c(F)c3C2=O)CC1 (single isomer, unassigned)
41 | > 6.00 | CC(C)(N)[C@H]1CC[C@H](CN2Cc3ccc(O)c(F)c3C2=O)CC1
42 | > 6.00 | CC(=O)N(C)CCOc1cccc(OC(C)[C@H]2CC[C@H](CN3Cc4ccc(O)c(F)c4C3=O)CC2)c1 (stereo partly shown)
43 | > 6.00 | COC(=O)[C@H](C)NC(C)[C@H]1CC[C@H](CN2Cc3ccc(O)c(F)c3C2=O)CC1 (single isomer, unassigned)
44 | > 6.00 | CC(C)C[C@@H](NC(C)C1CCC(CN2Cc3ccc(O)c(F)c3C2=O)CC1)C(=O)O (stereo partly shown) [drawing 107]
45 | > 6.00 | CC(NCCO)C1CCC(CN2Cc3ccc(O)c(F)c3C2=O)CC1 (stereo not shown)
46 | > 6.00 | COC(=O)CCNC(C)C1CCC(CN2Cc3ccc(O)c(F)c3C2=O)CC1 (stereo not shown)
47 | > 6.00 | CC(=O)[C@H]1CC[C@H](CN2Cc3ccc(O)c(F)c3C2=O)CC1
48 | > 6.00 | CC(C)[C@@H](CO)NC(C)[C@H]1CC[C@H](CN2Cc3ccc(O)cc3C2=O)CC1 (stereo partly shown) [drawing 110]
49 | > 6.00 | CC(Oc1cccc(F)c1)[C@H]1CC[C@H](CN2Cc3ccc(O)cc3C2=O)CC1 (stereo partly shown)
50 | > 6.00 | CC([C@H]1CC[C@H](CN2Cc3ccc(O)c(F)c3C2=O)CC1)N1CCOCC1 (stereo partly shown)

Row | pIC50 | SMILES
51 | > 6.00 | CC(C)[C@@H](NC(C)[C@H]1CC[C@H](CN2Cc3ccc(O)c(F)c3C2=O)CC1)C(=O)O (single isomer, unassigned)
52 | > 6.00 | CC(Oc1cccc(OC(F)(F)F)c1)[C@H]1CC[C@H](CN2Cc3ccc(O)c(F)c3C2=O)CC1 (stereo partly shown)
53 | > 6.00 | CC(C)OC(=O)[C@H]1CC[C@H](CN2Cc3ccc(O)cc3C2=O)CC1
54 | > 6.00 | O=C1c2cc(O)ccc2CN1C[C@H]1CC[C@H](COc2ccccc2)CC1
55 | > 6.00 | CC(Oc1cccc(F)c1)[C@H]1CC[C@H](CN2Cc3cc(F)c(O)cc3C2=O)CC1 (stereo partly shown)
56 | > 6.00 | COC(=O)[C@H]1CC[C@H](CN2Cc3ccc(O)cc3C2=O)CC1
57 | > 6.00 | CC(C)(O)[C@H]1CC[C@H](CN2Cc3ccc(O)cc3C2=O)CC1
58 | > 6.00 | CNCCOc1cccc(OC(C)[C@H]2CC[C@H](CN3Cc4ccc(O)c(F)c4C3=O)CC2)c1 (stereo partly shown)
59 | > 6.00 | CC(Oc1cccc(F)c1)[C@H]1CC[C@H](CN2Cc3cc(F)c(O)cc3C2=O)CC1 (mixture of isomers) [drawing 63]
60 | > 6.00 | CC(=O)NC(C)[C@H]1CC[C@H](CN2Cc3ccc(O)c(F)c3C2=O)CC1 (stereo partly shown)
61 | > 6.00 | CNC(=O)[C@H](Cc1ccccc1)NC(C)C1CCC(CN2Cc3ccc(O)c(F)c3C2=O)CC1 (stereo partly shown) [drawing 99]
62 | > 6.00 | CC(N[C@@H](C)C(=O)O)C1CCC(CN2Cc3ccc(O)c(F)c3C2=O)CC1 (stereo partly shown)
63 | > 6.00 | COC(=O)[C@H](NC(C)[C@H]1CC[C@H](CN2Cc3ccc(O)c(F)c3C2=O)CC1)C(C)C (single isomer, unassigned)
64 | > 6.00 | O=C1c2c(ccc(O)c2F)CN1C[C@H]1CC[C@H](CO)CC1
65 | > 6.00 | CNC(=O)[C@H](Cc1ccccc1)NC(C)C1CCC(CN2Cc3ccc(O)c(F)c3C2=O)CC1 (stereo partly shown) [drawing 100]
66 | > 6.00 | CCC(Oc1cccc(OC(F)(F)F)c1)C1CCC(CN2Cc3ccc(O)c(F)c3C2=O)CC1 (stereo not shown)
67 | > 6.00 | CC(O)[C@H]1CC[C@H](CN2Cc3cc(F)c(O)cc3C2=O)CC1 (stereo partly shown)
